Several values for one entry are separate records, joined by “and”; a condition that tells them apart may be missing. Equal entries are not always repeated. Inconclusive results and toxic doses are left out. Cut-off read from the data, not from the text of the source: active = T/C of 150% or more; inactive = T/C below 125%.
Tested on: L1210 leukemia ip in BDF1 mice, survival T/C
Experiment: NCI In Vivo Anticancer Drug Screen. Data for tumor model L1210 Leukemia (intraperitoneal) in B6D2F1 (BDF1) mice
Details: endpoint: mean survival time, higher = longer survival
Procedure, shortened: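 Tumor cells were implanted, animals were treated, and survival was followed. The result divides the treated measurement by the vehicle-control measurement.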

[1] = dose: 50.0 mg/kg/injection, schedule: Q01DX009 (ip), vehicle: Klucel (hydroxypropylcellulose) (HPC)
[2] = dose: 100.0 mg/kg/injection, schedule: Q01DX009 (ip), vehicle: Klucel (hydroxypropylcellulose) (HPC)
[3] = dose: 200.0 mg/kg/injection, schedule: Q01DX009 (ip), vehicle: Klucel (hydroxypropylcellulose) (HPC)
[4] = dose: 100.0 mg/kg/injection, schedule: Q04DX003 (ip), vehicle: Klucel (hydroxypropylcellulose) (HPC)
[5] = dose: 200.0 mg/kg/injection, schedule: Q04DX003 (ip), vehicle: Klucel (hydroxypropylcellulose) (HPC)
[6] = dose: 400.0 mg/kg/injection, schedule: Q04DX003 (ip), vehicle: Klucel (hydroxypropylcellulose) (HPC)
[7] = dose: 100.0 mg/kg/injection, schedule: Q04DX003 (ip), vehicle: saline with Tween-80
[8] = dose: 200.0 mg/kg/injection, schedule: Q04DX003 (ip), vehicle: saline with Tween-80
[9] = dose: 400.0 mg/kg/injection, schedule: Q04DX003 (ip), vehicle: saline with Tween-80
[10] = dose: 100.0 mg/kg/injection, schedule: Q01DX001 (ip), vehicle: saline
[11] = dose: 200.0 mg/kg/injection, schedule: Q01DX001 (ip), vehicle: saline
[12] = dose: 400.0 mg/kg/injection, schedule: Q01DX001 (ip), vehicle: saline
[13] = dose: 25.0 mg/kg/injection, schedule: Q01DX009 (ip), vehicle: saline
[14] = dose: 25.0 mg/kg/injection, schedule: Q04DX003 (ip), vehicle: saline
[15] = dose: 50.0 mg/kg/injection, schedule: Q04DX003 (ip), vehicle: saline
[16] = dose: 100.0 mg/kg/injection, schedule: Q04DX002 (ip), vehicle: Klucel (hydroxypropylcellulose) (HPC)
[17] = dose: 200.0 mg/kg/injection, schedule: Q04DX002 (ip), vehicle: Klucel (hydroxypropylcellulose) (HPC)
[18] = dose: 400.0 mg/kg/injection, schedule: Q04DX002 (ip), vehicle: Klucel (hydroxypropylcellulose) (HPC)

Measured: T/C

CS(=O)(=O)OCCCOS(C)(=O)=O
inactive: dose: 9.37 mg/kg/injection, schedule: Q01DX009 (ip), vehicle: Klucel (hydroxypropylcellulose) (HPC) 101 % of control | dose: 18.75 mg/kg/injection, schedule: Q01DX009 (ip), vehicle: Klucel (hydroxypropylcellulose) (HPC) 102 % of control | dose: 37.5 mg/kg/injection, schedule: Q01DX009 (ip), vehicle: Klucel (hydroxypropylcellulose) (HPC) 106 % of control | dose: 75.0 mg/kg/injection, schedule: Q01DX009 (ip), vehicle: Klucel (hydroxypropylcellulose) (HPC) 116 % of control | dose: 150.0 mg/kg/injection, schedule: Q01DX009 (ip), vehicle: Klucel (hydroxypropylcellulose) (HPC) 90 % of control

CC(=O)OCC(C)CC/C(=N\O)C(C)C1/C(=N/O)CC2C=C3CC(OC(C)=O)CCC3(C)CC21C (centres undefined)
inactive: [1] 97 % of control | [2] 91 % of control | [3] 91 % of control

C=CCOc1cc(C)cc(C)c1C
inactive: [1] 95 % of control | dose: 85.0 mg/kg/injection, schedule: Q04DX003 (ip), vehicle: Klucel (hydroxypropylcellulose) (HPC) 90 % of control | [2] 94 % of control | [4] 112 % of control | dose: 135.0 mg/kg/injection, schedule: Q04DX003 (ip), vehicle: Klucel (hydroxypropylcellulose) (HPC) 90 % of control | [3] 89 % of control | [5] 88 % of control | dose: 300.0 mg/kg/injection, schedule: Q04DX003 (ip), vehicle: Klucel (hydroxypropylcellulose) (HPC) 90 % of control | [6] 120 % of control

O=C(C1C2C=CC(CC2)C1C(=O)N1CCCCC1)N1CCCCC1 (centres undefined)
inactive: [7] 96 % of control | [8] 100 % of control | [9] 96 % of control

Cc1cc(C)c(C(=O)Oc2ccc3ccccc3c2)c(C)c1
inactive: [7] 92 % of control | [8] 92 % of control | [9] 86 % of control

CCCCC(CC)CCC(O)CC (centres undefined)
inactive: dose: 100.0 mg/kg/injection, schedule: Q01DX009 (ip), vehicle: saline with Tween-80 98 % of control | [7] 98 % of control | dose: 200.0 mg/kg/injection, schedule: Q01DX009 (ip), vehicle: saline with Tween-80 101 % of control | [8] 95 % of control | dose: 400.0 mg/kg/injection, schedule: Q01DX009 (ip), vehicle: saline with Tween-80 97 % of control | [9] 98 % of control

CC(C)CCCC(C)C1CCC2C3CC(=O)NC4CC(Br)CCC4(C)C3CCC12C (centres undefined)
inactive: dose: 100.0 mg/kg/injection, schedule: Q04DX003 (ip), vehicle: acetone 93 % of control | dose: 200.0 mg/kg/injection, schedule: Q04DX003 (ip), vehicle: acetone 102 % of control | dose: 400.0 mg/kg/injection, schedule: Q04DX003 (ip), vehicle: acetone 98 % of control

C/C=C/C(O)(C(=O)OCC)C(C)C (centres undefined)
inactive: [10] 111 % of control | [11] 96 % of control | [12] 100 % of control

Nc1ccc(C(=O)CC(=O)c2cccc([N+](=O)[O-])c2)cc1
inactive: dose: 100.0 mg/kg/injection, schedule: Q04DX003 (ip), vehicle: carboxymethylcellulose (CMC) 97 % of control | dose: 200.0 mg/kg/injection, schedule: Q04DX003 (ip), vehicle: carboxymethylcellulose (CMC) 93 % of control | dose: 400.0 mg/kg/injection, schedule: Q04DX003 (ip), vehicle: carboxymethylcellulose (CMC) 90 % of control

CCCCCCCCN
inactive: dose: 25.0 mg/kg/injection, schedule: Q01DX001 (ip), vehicle: saline 103 % of control | [13] 108 % of control and 111 % of control | dose: 25.0 mg/kg/injection, schedule: Q04DX002 (ip), vehicle: saline 101 % of control and 105 % of control | [14] 101 % of control | dose: 50.0 mg/kg/injection, schedule: Q01DX001 (ip), vehicle: saline 101 % of control | dose: 50.0 mg/kg/injection, schedule: Q01DX009 (ip), vehicle: saline 104 % of control | dose: 50.0 mg/kg/injection, schedule: Q04DX002 (ip), vehicle: saline 100 % of control and 105 % of control | [15] 98 % of control | [10] 94 % of control | dose: 100.0 mg/kg/injection, schedule: Q01DX009 (ip), vehicle: saline 111 % of control

Cc1ccc([P+](Cc2ccc(Cl)cc2Cl)(c2ccc(C)cc2)c2ccc(C)cc2)cc1
inactive: dose: 6.25 mg/kg/injection, schedule: Q04DX003 (ip), vehicle: Klucel (hydroxypropylcellulose) (HPC) 103 % of control | dose: 12.5 mg/kg/injection, schedule: Q04DX003 (ip), vehicle: Klucel (hydroxypropylcellulose) (HPC) 92 % of control

CNC(=O)Nc1ccc(C(=O)O)cc1
inactive: [16] 102 % of control | [17] 95 % of control | [18] 95 % of control

O=C1c2ccccc2C(=O)N1OCc1ccc(CON2C(=O)c3ccccc3C2=O)cc1
inactive: dose: 100.0 mg/kg/injection, schedule: Q04DX003 (ip), vehicle: saline 101 % of control | dose: 200.0 mg/kg/injection, schedule: Q04DX003 (ip), vehicle: saline 95 % of control | dose: 400.0 mg/kg/injection, schedule: Q04DX003 (ip), vehicle: saline 95 % of control

COC(=O)c1ccccc1NC(=O)N(c1ccccc1)c1ccccc1
inactive: [16] 93 % of control | [17] 97 % of control | [18] 101 % of control

Nc1nc2ccccc2c(=O)[nH]1
inactive: dose: 25.0 mg/kg/injection, schedule: Q04DX003 (ip), vehicle: saline with Tween-80 110 % of control | dose: 50.0 mg/kg/injection, schedule: Q04DX003 (ip), vehicle: saline with Tween-80 96 % of control | [7] 102 % of control and 106 % of control

Cc1cc(Cc2ccccc2)n[nH]1
inactive: dose: 100.0 mg/kg/injection, schedule: Q01DX001 (ip), vehicle: Klucel (hydroxypropylcellulose) (HPC) 107 % of control | dose: 200.0 mg/kg/injection, schedule: Q01DX001 (ip), vehicle: Klucel (hydroxypropylcellulose) (HPC) 102 % of control | dose: 400.0 mg/kg/injection, schedule: Q01DX001 (ip), vehicle: Klucel (hydroxypropylcellulose) (HPC) 108 % of control

COc1ccc2c3csc4ccccc4c-3nc2c1
inactive: dose: 12.5 mg/kg/injection, schedule: Q01DX009 (ip), vehicle: saline 98 % of control | dose: 12.5 mg/kg/injection, schedule: Q04DX003 (ip), vehicle: saline 95 % of control | dose: 25.0 mg/kg/injection, schedule: Q01DX009 (ip), vehicle: Klucel (hydroxypropylcellulose) (HPC) 111 % of control | [13] 98 % of control | [14] 95 % of control | [1] 100 % of control | [15] 94 % of control

O=S1Cc2cc3ccccc3cc2C1
inactive: dose: 100.0 mg/kg/injection, schedule: Q01DX001 (ip), vehicle: saline with Tween-80 102 % of control | dose: 200.0 mg/kg/injection, schedule: Q01DX001 (ip), vehicle: saline with Tween-80 103 % of control | dose: 400.0 mg/kg/injection, schedule: Q01DX001 (ip), vehicle: saline with Tween-80 108 % of control

CN(C)C=C1C(=O)c2ccccc2C1=O
inactive: [7] 105 % of control | [8] 107 % of control

COC1OC(CO)C(N(C)C(C)=O)C1O (centres undefined)
inactive: [10] 94 % of control | [11] 103 % of control | [12] 97 % of control

O=C(CBr)NCCCCc1ccc(C(=O)O)cc1
inactive: dose: 10.0 mg/kg/injection, schedule: Q01DX001 (ip), vehicle: carboxymethylcellulose (CMC) 92 % of control | dose: 20.0 mg/kg/injection, schedule: Q01DX001 (ip), vehicle: carboxymethylcellulose (CMC) 100 % of control | dose: 40.0 mg/kg/injection, schedule: Q01DX001 (ip), vehicle: carboxymethylcellulose (CMC) 103 % of control

Cc1ccccc1N1CCN(c2c3c(nc4ccccc24)CCCCC3)CC1
inactive: [10] 93 % of control | [12] 93 % of control

COc1cccc(NC(=S)NC2CCCCCCCCCCC2)c1
inactive: dose: 100.0 mg/kg/injection, schedule: Q04DX002 (ip), vehicle: gum acacia 94 % of control | dose: 200.0 mg/kg/injection, schedule: Q04DX002 (ip), vehicle: gum acacia 94 % of control | dose: 400.0 mg/kg/injection, schedule: Q04DX002 (ip), vehicle: gum acacia 94 % of control

Cc1cc(C)c(NC(=O)c2cccc(C(=O)Nc3c(C)cc(C)cc3C)c2)c(C)c1
inactive: [2] 102 % of control | [4] 91 % of control | [3] 104 % of control | [5] 88 % of control | dose: 400.0 mg/kg/injection, schedule: Q01DX009 (ip), vehicle: Klucel (hydroxypropylcellulose) (HPC) 96 % of control | [6] 88 % of control

Source: PubChem BioAssay AID248 (DTP/NCI, 2004)
